pIC50: −log10 of the molar value.

The target in one assay is adenosine A2B receptor (Homo sapiens (Human), UniProt P29275). Description: Adenosine receptor activity assay (Table 1), A2B activity. The conditions noted are these: for pIC50: read-out: Ave A2B cAMP IC50. Type of assay: biochemical.
The target of another assay is adenosine A2A receptor (Homo sapiens (Human), UniProt P29274). Description: Adenosine receptor activity assay (Table 1), A2A activity. The format is biochemical. The following applies: read-out: Ave A2A cAMP IC50.
Chain of adenosine A2A receptor (P29274 whole entry): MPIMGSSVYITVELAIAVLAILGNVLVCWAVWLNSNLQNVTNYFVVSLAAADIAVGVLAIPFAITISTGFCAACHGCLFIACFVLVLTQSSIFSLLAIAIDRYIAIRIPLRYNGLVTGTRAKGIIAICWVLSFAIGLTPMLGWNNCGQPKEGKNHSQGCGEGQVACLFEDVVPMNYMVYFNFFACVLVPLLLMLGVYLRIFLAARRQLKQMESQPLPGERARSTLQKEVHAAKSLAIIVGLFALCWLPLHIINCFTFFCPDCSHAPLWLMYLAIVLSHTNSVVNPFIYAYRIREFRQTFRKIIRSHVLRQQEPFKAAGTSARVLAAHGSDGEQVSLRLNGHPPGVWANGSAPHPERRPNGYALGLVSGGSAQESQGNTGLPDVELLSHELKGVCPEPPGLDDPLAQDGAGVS
Where [1] appears, read: A2A activity to the A2B activity, A2A/A2B.
[2] abbreviates: A2A activity to A2B activity (A2A/A2B).

Chain of adenosine A2B receptor (P29275 whole entry): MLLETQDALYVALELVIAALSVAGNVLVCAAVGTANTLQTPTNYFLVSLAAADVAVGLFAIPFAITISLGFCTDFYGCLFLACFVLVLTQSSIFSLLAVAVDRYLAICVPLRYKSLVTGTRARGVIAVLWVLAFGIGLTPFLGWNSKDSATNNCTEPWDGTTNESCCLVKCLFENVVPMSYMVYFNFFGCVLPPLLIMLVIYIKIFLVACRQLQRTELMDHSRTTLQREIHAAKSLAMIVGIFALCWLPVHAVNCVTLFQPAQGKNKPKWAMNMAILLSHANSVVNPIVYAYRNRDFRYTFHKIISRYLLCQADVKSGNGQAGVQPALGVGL

With `C[C@H](Nc1nc(C(=O)N2CC[C@@H](NC(=O)OC(C)(C)C)C2)c2sccc2n1)c1ccccn1` [Example Z246, tert-Butyl ((R)-1-(2-(((S)-1-(pyridin-2-yl)ethyl)amino)thieno[3,2-d]pyrimidine-4-carbonyl)pyrrolidin-3-yl)carbamate], the pIC50 on adenosine A2B receptor was 7.30 to 8.00; at adenosine A2A receptor, 6.30 to 7.00.

Consider `COCCC(=O)N1CCN(C(=O)c2nc(N[C@@H](C)c3cncc(F)c3)nc3ccsc23)C1` [Example Z589, (S)-1-(3-(2-((1-(5-Fluoropyridin-3-yl)ethyl)amino)thieno[3,2-d]pyrimidine-4-carbonyl)imidazolidin-1-yl)-3-methoxypropan-1-one], for which the Ratio on adenosine A2B receptor (setting [1]) is 17.96. In addition, the pIC50 on adenosine A2B receptor is 7.30 to 8.00; on adenosine A2A receptor, under 6.30.

With `C[C@H](Nc1nc(C(=O)NCCc2cccc(C#N)c2)c2sccc2n1)c1cncc(F)c1` [Example Z445, (S)—N-(3-Cyanophenethyl)-2-((1-(5-fluoropyridin-3-yl)ethyl)amino)thieno[3,2-d]pyrimidine-4-carboxamide], the Ratio on adenosine A2B receptor (setting [1]) amounted to 9.62. Also, the pIC50 is 7.00 to 7.30 at adenosine A2B receptor and under 6.30 at adenosine A2A receptor.

Take `COc1cncc(CNc2nc(C(=O)N3CC(O)C3)c3sccc3n2)c1` [Example Z119, (3-Hydroxyazetidin-1-yl)(2-(((5-methoxypyridin-3-yl)methyl)amino)thieno[3,2-d]pyrimidin-4-yl)methanone]: the Ratio on adenosine A2B receptor (setting [2]) was 2.08. Further, the negative logarithm of the IC50 (pIC50) is 6.30 to 7.00 at adenosine A2B receptor and under 6.30 on adenosine A2A receptor.

For the molecule `C[C@H](Nc1nc(C(=O)NCCO)c2sc(N)cc2n1)c1ccccn1` [Example Z209, (S)-6-Amino-N-(2-hydroxyethyl)-2-((1-(pyridin-2-yl)ethyl)amino)thieno[3,2-d]pyrimidine-4-carboxamide], the Ratio at adenosine A2B receptor (setting [2]) is 30.22. The figures for the pIC50 at adenosine A2B receptor and at adenosine A2A receptor were 7.30 to 8.00 and under 6.30, respectively.

Turning to `CC(NC(=O)c1nc(NC(C)c2cccnc2)nc2ccsc12)c1cccnc1` (centres unmarked) [Example Z44, N-(1-(Pyridin-3-yl)ethyl)-2-((1-(pyridin-3-yl)ethyl)amino)thieno[3,2-d]pyrimidine-4-carboxamide], the Ratio at adenosine A2B receptor (setting [2]) is given as 44.44. The pIC50 is 6.30 to 7.00 at adenosine A2B receptor and under 6.30 on adenosine A2A receptor.

On to `C[C@@H]1CCN(C(=O)c2nc(N[C@@H](C)c3ccccn3)nc3cc(N)sc23)C1` [Example Z206, (6-Amino-2-(((S)-1-(pyridin-2-yl)ethyl)amino)thieno[3,2-d]pyrimidin-4-yl)((R)-3-methylpyrrolidin-1-yl)methanone], for which the Ratio on adenosine A2B receptor (setting [2]) was 8.53. In addition, the pIC50 on adenosine A2B receptor was 7.30 to 8.00; at adenosine A2A receptor, 6.30 to 7.00.

Turning to `CC(C)(Nc1nc(C(=O)N2CCCC2)c2sccc2n1)c1cccnc1` [Example Z112, (2-((2-(Pyridin-3-yl)propan-2-yl)amino)thieno[3,2-d]pyrimidin-4-yl)(pyrrolidin-1-yl)methanone], the Ratio at adenosine A2B receptor (setting [2]) is 7.09. Also, the negative logarithm of the IC50 (pIC50) on adenosine A2B receptor is 6.30 to 7.00; at adenosine A2A receptor, under 6.30.

Turning to `O=C(c1nc(NCc2cnccn2)nc2ccsc12)N1CCC1` [Example Z155, Azetidin-1-yl(2-((pyrazin-2-ylmethyl)amino)thieno[3,2-d]pyrimidin-4-yl)methanone], at adenosine A2B receptor (setting [2]), the Ratio was found to be 18.83. Further, the pIC50 on adenosine A2B receptor was 7.00 to 7.30; at adenosine A2A receptor it was under 6.30.

Take `C[C@H](Nc1nc(C(=O)NCCc2cccc(Oc3ccccc3)c2)c2sccc2n1)c1cncc(F)c1` [Example Z417, (S)-2-((1-(5-Fluoropyridin-3-yl)ethyl)amino)-N-(3-phenoxyphenethyl)thieno[3,2-d]pyrimidine-4-carboxamide]: the Ratio on adenosine A2B receptor (setting [1]) was determined as 4.87. Moreover, the pIC50 at adenosine A2B receptor was 6.30 to 7.00; on adenosine A2A receptor it was under 6.30.

For `COc1cc(F)cc(CNc2nc(C(=O)N3CC(C)(O)C3)c3sccc3n2)c1` [Example Z136, (2-((3-Fluoro-5-methoxybenzyl)amino)thieno[3,2-d]pyrimidin-4-yl)(3-hydroxy-3-methylazetidin-1-yl)methanone], on adenosine A2B receptor (setting [2]), the Ratio amounted to 11.51. The values for the pIC50 on adenosine A2B receptor and at adenosine A2A receptor were 7.00 to 7.30 and under 6.30, respectively.

A word on the pIC50: it is −log10 of the IC50, conventionally taken in molar units.

The values above are taken from patent publication US11254686B1 (Corvus Pharmaceuticals, Inc., priority 2017, dated 2022).
